Measured values from patent US7053108B2, “Indoline compounds” (Les Laboratoires Servier, priority 2002, dated 2006).

Columns and labels:
Format in all cases: in vivo
[1] = system: extracellular concentrations of dopamine and noradrenaline in the frontal cortex; experiment: Measurement of the extracellular concentrations of dopamine and noradrenaline in the frontal cortex of the conscious rat (microdialysis); conditions: 40.0 mg/kg p.o., 30 minutes post administration, frontal cortex dialysate
Description: Measurement of the Extracellular Concentrations of Dopamine and Noradrenaline in the Frontal Cortex of the Conscious Rat
Dialysis. The surgery is performed under pentobarbital-induced anaesthesia (60 mg/kg, i.p.). The rats are placed in a Kopf stereotaxic device and a cannula guide (CMA Microdialysis AB, Stockholm, Sweden) is implanted in the frontal cortex at the coordinates: anteroposterior: +2.2, lateral: ±0.6, ventral deviation: −0.2. The rats are placed in separate cages and recover from the anaesthesia over 5 days. […]
Chromatography. Dopamine (DA) and noradrenaline (NA) are simultaneously measured as follows: 20 μl of dialysate sample are diluted with 20 μl of mobile phase (75 mM NaH2PO4, 20 μM EDTA, 1 mM sodium decanesulphonate, 17.5% methanol, 0.01% triethylamine, pH: 5.70) and 33 μl are analysed by HPLC using, for separation, an inversephase column (Hypersil C18, 150×4.6 mm; particle size 5 μm) thermostatically controlled at 43° C. and, for quantification, a coulometric detector (ESA5014, Coulochem II, ESA, Chelmsford, USA). […]
The compound of Example 1 (40.0 mg/kg, p.o.) causes a substantial increase in the extracellular concentrations of DA and NA in the dialysates collected from the frontal cortex of conscious rats. The data are expressed as the mean ±S.E.M. The levels of DA and NA are expressed with respect to the mean values before administration of the drug. […]

[2] = Social interaction test in the rat; conditions: 1 hour before the test, Sprague-Dawley rat, carrier 183 ± 7
Description: Social Interaction Test in the Rat
This test allows evaluation of the potential anxiolytic activity of the compounds. Male rats of the Sprague-Dawley strain (Charles River, Saint-Aubin-les-Elbeuf, France) weighing 240–260 g on arrival are isolated in individual cages for 5 days in dimly lit animal quarters (3–10 lux). The test is carried out on the final day and consists of placing the animals in pairs, matched by weight (±5 g), in a brightly lit enclosure (300 lux) for 10 minutes. The time spent by the animals in interacting with one another (grooming, chasing, . . . ) is measured. The compound or the carrier is administered to the animals 1 hour before the test, each couple receiving the same treatment. The anxiolytic effect of a compound is reflected by an increased duration of interaction compared to that of animals to whom the carrier has been administered.

5-HT2c receptors = molecular target: T1, 5-HT2c receptors (Rattus norvegicus, UniProt P08909); experiment: Penile erection test following administration of Ro 60-0175 (1.25 mg/kg, s.c.) in the rat; conditions: Wistar rat; for % inhibition of penile erections: Ro 60-0175 1.25 mg/kg s.c. 30 min later
T1 construct: from tissue; host or cells: whole living male Wistar rat (in vivo)
T1 sequence (P08909 33-460): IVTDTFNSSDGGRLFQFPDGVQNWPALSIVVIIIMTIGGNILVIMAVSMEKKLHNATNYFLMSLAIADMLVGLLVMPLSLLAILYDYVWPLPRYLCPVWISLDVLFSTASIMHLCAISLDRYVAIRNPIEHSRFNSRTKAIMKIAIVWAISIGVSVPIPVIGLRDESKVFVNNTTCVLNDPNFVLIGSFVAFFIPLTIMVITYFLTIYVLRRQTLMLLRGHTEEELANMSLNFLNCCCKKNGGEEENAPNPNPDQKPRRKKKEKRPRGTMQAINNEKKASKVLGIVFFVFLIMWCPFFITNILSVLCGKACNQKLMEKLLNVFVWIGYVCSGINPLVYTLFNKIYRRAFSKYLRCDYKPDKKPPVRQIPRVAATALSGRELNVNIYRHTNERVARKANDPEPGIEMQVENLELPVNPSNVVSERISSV
Description: Penile Erection Test Following Administration of Ro 60-0175 (1.25 mg/kg, s.c.) in the Rat
This test allows evaluation of the capacity of pharmacological agents to inhibit penile erections caused by administration of a selective 5-HT2c agonist, Ro 60-0175. Inhibition is therefore predictive of antagonist activity with respect to 5-HT2c receptors. Male rats of the Wistar strain (Iffa-Credo, L'Arbresle, France) weighing 120–140 g on the day of the experiment are placed separately in plexiglass observation boxes (7.5×18×30 cm) immediately after the compound or the carrier has been administered. Thirty minutes later, Ro 60-0175 (1.25 mg/kg, s.c.) is administered to the animals and the number of erections occurring during the next 30 minutes is counted.

Vogel conflict test = conditions: 30 minutes before test, 3 minutes, Wistar rat, carrier 77.1 ± 14.7
Description: The test is carried out in a transparent plastics cage (32×25×30 cm) located in a soundproofed and ventilated enclosure. The cage has a chrome steel floor. The metal tip of the drink-containing bottle enters the cage at a height of 6 cm above the metal floor. The floor and the tip of the bottle are connected by electric cables to an “Anxiometer” apparatus (Columbus Instruments, Ohio, USA), which records the licks of the animal and controls the administration of electric shocks.
For the 4 days preceding the test, the rats (male Wistar rats weighing 250–270 g) (3 per cage) have access to drink for only one hour per day. On the day before the test, the animals are isolated in cages, on grills, without food or drink, immediately after their final hour of access to drink. The test takes place on the 5th day. On the day of the test, the animal is given by gavage (p.o.) either the solvent (suspension of distilled water+Tween 80) (control) or the compound, 30 minutes before being placed in the test cage. The session begins as soon as the animal has carried out 20 licks and has received a first electric shock (between the metal tip and metal floor), (constant current, 0.5 sec. duration, 0.3 mA intensity). Subsequently, the animal receives an electric shock each time it carries out 20 licks, for a period of 3 minutes. Animals not having performed the first 20 licks of the session by the end of 5 minutes are withdrawn from the test. The results are the numbers of licks performed by the animal during the 3 minutes of the test.

O=C(Nc1cccnc1)N1CCc2c1ccc1ccccc21 [Example 1, N-(3-Pyridyl)-1,2-dihydro-3H-benzo[e]indole-3-carboxamide]
Extracellular DA level with respect to the mean values before administration (mean ±S.E.M.) ([1]; solvent = +3.9±9.8, in % (unit assumed)): +95.0±12.9 | Extracellular NA level with respect to the mean values before administration (mean ±S.E.M.) ([1]; solvent = +8.7±11.9, in % (unit assumed)): +118.2±16.7 | Duration of social interactions (s) mean ± s.e.m. (n) ([2]; 0.16 mg/kg p.o.): 187 ± 11 (5) s | Duration of social interactions (s) mean ± s.e.m. (n) ([2]; 0.63 mg/kg p.o., p < 0.05): 228 ± 11 (5) s | Duration of social interactions (s) mean ± s.e.m. (n) ([2]; 2.5 mg/kg p.o., p < 0.05): 242 ± 15 (5) s | Duration of social interactions (s) mean ± s.e.m. (n) ([2]; 10.0 mg/kg p.o., p < 0.05): 233 ± 10 (5) s | % inhibition of penile erections (5-HT2c receptors; 0.25 mg/kg p.o.): 12% | % inhibition of penile erections (5-HT2c receptors; 0.63 mg/kg p.o.): 16% | % inhibition of penile erections (5-HT2c receptors; 1.00 mg/kg p.o.): 50% | % inhibition of penile erections (5-HT2c receptors; 2.5 mg/kg p.o.): 88% | % inhibition of penile erections (5-HT2c receptors; 10.0 mg/kg p.o.): 100% | ED50 (5-HT2c receptors; po, inhibition of Ro 60-0175-induced penile erections, p.o., read-out: ID50 (inhibitory dose50)): 1.16 mg/kg | Punished licks (1 shock/20 licks) Mean ± s.e.m. (n) (Vogel conflict test; 2.5 mg/kg p.o.): 92.2 ± 20.7 (5) | Punished licks (1 shock/20 licks) Mean ± s.e.m. (n) (Vogel conflict test; 10.0 mg/kg p.o.): 145.2 ± 46.3 (5) | Punished licks (1 shock/20 licks) Mean ± s.e.m. (n) (Vogel conflict test; 40.0 mg/kg p.o., p < 0.05): 324.4 ± 70.7 (10)
